# Like-named read-outs stand apart in the source and are kept apart here.
# System: GM01896 cells (MPS II dermal fibroblasts)
# Test: Assay 1: MPS cellular assay, MPS II (heparan sulfate disaccharide biomarkers by LC-MS)
# Format: cell-based, human
# Conditions: Assay 1 for MPS II, heparan sulfate disaccharide biomarkers (I2a4, I2a6, I2S0 and/or I2S6), read-out: IC50 Range
# Method: Dermal fibroblasts from humans with an MPS disorder and from healthy donors are grown. Cells are expanded and kept in culture for analysis. Human foreskin fibroblasts can be obtained from the American Type Culture Collection (CRL-1634). Human dermal fibroblasts derived from biopsies of individuals are purchased from Coriell Institute: clinically healthy individuals, GM00408, GM00409, GM00200 (clinically unaffected sibling of an individual with metachromatic leukodystrophy), GM05659, GM08398, and GM15871 (clinically unaffected sibling of an individual with unclassified Ehlers-Danlos syndrome); heterozygous MPS I carriers, GM01392, GM01393 and GM0003; homozygous individuals affected with MPS I, GM06214, GM11495, GM00034, GM01391 and GM01256; individuals with MPS II, GM01896, GM03181, GM00615 and GM00298; individuals with MPS IIIA, GM00879, GM00643, GM00934, GM06110 and GM00629; MPS IIIB, GM01426; MPS IIIC, GM05157; MPS IIID, GM05093; and MPS VII, GM00121. All cells are grown in DMEM containing 50 U ml-1 penicillin, […] ml-1 streptomycin, 2 mM glutamine and 10% FBS. Cells are seeded on 15-cm-diameter tissue culture dishes, grown to confluence and maintained in culture for analysis. Sulfamidase activity in cell extracts is measured with 4-methylumbelliferyl-α-D-N-sulfoglucosaminide according the vendors instructions substituting Tris-acetate buffer (pH 6.5; Moscerdam).
# Cells are treated with a compound of the invention at a concentration at or below 30 μM for 4 to 21 days. Cell monolayers are washed with phosphate buffered saline and detached by treatment with GIBCO trypsin-EDTA solution (Invitrogen). After centrifugation, the supernatant is removed and the cells are lysed in 0.5 mL of 0.1 N sodium hydroxide. The amount of protein is determined by bicinchoninic acid (BCA assay, Thermo Scientific). GAGs are isolated by anion exchange chromatography and digested with glycosaminoglycan lyases (heparinases I, II, and III, IBEX).
# Enzymatically depolymerized GAG preparations are differentially mass labeled by reductive amination with [^12C6]aniline. Briefly, heparan sulfate disaccharides (1-10 pmol) are dried down in a centrifugal evaporator and reacted with [^12C6]aniline or [^13C6]aniline (15 μL, 165 μmol) and 15 μL of 1 M NaCNBH3 (Sigma-Aldrich) freshly prepared in dimethylsulfoxide/acetic acid (7:3, v/v) is added to each sample. Reactions are carried out at 37° C. for 16 h and then dried in a centrifugal evaporator. Unsubstituted amines are reacted with propionic anhydride (Sigma-Aldrich). Dried samples are reconstituted in 20 μL of 50% methanol, and 3 μL of propionic anhydride (Sigma-Aldrich, 23.3 μmol) is added. Reactions are carried out at ˜23° C. for 2 h. Acylated disaccharides are subsequently aniline tagged as described above. Each sample is mixed with commercially available standard unsaturated disaccharides (Seikagaku), standard N-sulfoglucosamine, glucosamine-6-sulfate, N-acetylgalactosamine-4-sulfate and N-acetylgalactosamine-6-sulfate (Sigma-Aldrich), and/or synthesized α-L-idopyranosyluronate-(1,4)-2-N-acetyl-2-deoxy-α/β-D-glucopyranoside (I0S0). All standards are tagged with [^13C6]aniline (Sigma-Aldrich). Samples are then analyzed by LC-MS using an LTQ Orbitrap Discovery electrospray ionization mass spectrometer (Thermo Scientific) equipped with quaternary HPLC pump (Finnigan Surveyor MS pump) and a reverse-phase capillary column as described in J. Biol. Chem. 2008, 283(48), 33674.
# MPS II: Assay 1, as described above, was used to determine activity for MPS II using GM01896 cells. […] Extracted ion chromatograms were obtained. Cell viability was monitored using alamar blue or ATP quantification. IC50's were calculated using curve fitting within the ChemInnovation CBIS database system.
Compound,"IC50 (Homo sapiens, Fibroblast) [nM]",IC50 [nM]
"Cc1nn(C)c2cc(-c3cc(Nc4ccc(-c5cccn5C)cc4)nc(N4CCOCC4)n3)ccc12 [[6-(1,3-dimethyl(1H-indazol-6-yl))-2-morpholin-4-ylpyrimidin-4-yl][4-(1-methylpyrrol-2-yl)phenyl]amine]",500 to 1000,–
Cn1nc2ccc(Nc3cc(-c4ccc5cnn(C)c5c4)nc(N4CCOCC4)n3)cc2n1 [[6-(1-methyl(1H-indazol-6-yl))-2-morpholin-4-ylpyrimidin-4-yl](2-methyl(2-hydrobenzotriazol-5-yl))amine],–,1000 to 5000
"CN(C)C(=O)c1ccc(Nc2cc(-c3ccc4cnn(C)c4c3)nc(N3CCOCC3)n2)cc1 [N,N-dimethyl(4-{[6-(1-methyl(1H-indazol-6-yl))-2-morphlin-4-ylpyrimidin-4-yl]amino}phenyl)carboxamide]",–,500 to 1000
COc1ccc(Nc2cc(-c3ccc4cnn(C)c4c3)nc(N3CCOCC3)n2)cc1 [(4-methoxyphenyl)[6-(1-methyl(1H-indazol-6-yl))-2-morpholin-4-ylpyrimidin-4-yl]amine],1000 to 5000,–
"Cc1nn(C)c2cc(-c3cc(Nc4ccc(-c5ncc[nH]5)cc4)nc(N4CCOCC4)n3)ccc12 [[6-(1,3-dimethyl(1H-indazol-6-yl))-2-morpholin-4-ylpyrimidin-4-yl](4-imidazol-2-ylphenyl)amine]",< 500,–
Clc1ccc(Nc2cc(-c3ccc4c(c3)ncn4CCN3CCCC3)nc(N3CCOCC3)n2)cc1 [(4-chlorophenyl){2-morpholin-4-yl-6-[1-(2-pyrrolidinylethyl)benzimidazol-5-yl]pyrimidin-4-yl}amine],1000 to 5000,–
Clc1ccc(Nc2cc(-c3cccc4[nH]ncc34)nc(N3CCOCC3)n2)cc1 [N-(4-chlorophenyl)-6-(1H-indazol-4-yl)-2-morpholinopyrimidin-4-amine],500 to 1000,–
Cn1nc(CCCN)c2ccc(-c3cc(Nc4ccc(Cl)cc4)nc(N4CCOCC4)n3)cc21 [{6-[3-(3-aminopropyl)-1-methyl(1H-indazol-6-yl)]-2-morpholin-4-ylpyrimidin-4-yl}(4-chlorophenyl)amine],1000 to 5000,–
Cc1ccc(Nc2cc(-c3ccc4c(cnn4C)c3)nc(N3CCOCC3)n2)cc1 [[6-(1-methyl(1H-indazol-5-yl))-2-morpholin-4-ylpyrimidin-4-yl](4-methylphenyl)amine],1000 to 5000,–
COc1cc(Nc2cc(-c3ccc4c(c3)ncn4C)nc(N3CCOCC3)n2)ccn1 [(2-methoxy(4-pyridyl))[6-(1-methylbenzimidazol-5-yl)-2-morpholin-4-ylpyrimidin-4-yl]amine],1000 to 5000,–
Clc1ccc(Nc2cc(-c3ccc4c(c3)ncn4C3CC3)nc(N3CCOCC3)n2)cc1 [(4-chlorophenyl)[6-(1-cyclopropylbenzimidazol-5-yl)-2-morpholin-4-ylpyrimidin-4-yl]amine],1000 to 5000,–
"Cc1nn(C)c2cc(-c3cc(Nc4ccc(-c5nnc(C6CC6)[nH]5)cc4)nc(N4CCOCC4)n3)ccc12 [[6-(1,3-dimethyl(1H-indazol-6-yl))-2-morpholin-4-ylpyrimidin-4-yl][4-(5-cyclopropyl(4H-1,2,4-triazol-3-yl))phenyl]amine]",< 500,–
"Cn1ncc2ccc(-c3cc(Nc4ccc(-n5nccn5)cc4)nc(N4CCOCC4)n3)cc21 [[6-(1-methyl(1H-indazol-6-yl))-2-morpholin-4-ylpyrimidin-4-yl](4-(1,2,3-triazol-2-yl)phenyl)amine]",< 500,–
"Cc1nn(C)c2cc(-c3cc(Nc4ccc5cc(C)n(C)c5c4)nc(N4CCOCC4)n3)ccc12 [[6-(1,3-dimethyl(1H-indazol-6-yl))-2-morpholin-4-ylpyrimidin-4-yl](1,2-dimethylindol-6-yl)amine]",500 to 1000,–
"Cn1c(=O)n(C)c2cc(-c3cc(Nc4ccc(Cl)cc4)nc(N4CCOCC4)n3)ccc21 [5-{6-[(4-chlorophenyl)amino]-2-morpholin-4-ylpyrimidin-4-yl}-1,3-dimethyl-3-hydrobenzimidazol-2-one]",–,< 500
CNC(=O)c1ccc(Nc2cc(-c3ccc4ncn(CCN(C)C)c4c3)nc(N3CCOCC3)n2)cc1 [{4-[(6-{1-[2-(dimethylamino)ethyl]benzimidazol-6-yl}-2-morpholin-4-ylpyrimidin-4-yl)amino]phenyl}-N-methylcarboxamide],< 500,–
Cn1nc(NCCCCN2CCCC2)c2ccc(-c3cc(Nc4ccc(Cl)cc4)nc(N4CCOCC4)n3)cc21 [(4-chlorophenyl)(6-{1-methyl-3-[(4-pyrrolidinylbutyl)amino](1H-indazol-6-yl)}-2-morpholin-4-ylpyrimidin-4-yl)amine],500 to 1000,–
CNC(=O)c1ccc(Nc2cc(-c3ccc4c(c3)ncn4C)nc(N3CCOCC3)n2)cc1 [N-methyl(4-{[6-(1-methylbenzimidazol-5-yl)-2-morpholin-4-ylpyrimidin-4-yl]amino}phenyl)carboxamide],< 500,–
"Cc1nnc(-c2ccc(Nc3cc(-c4ccc5nc(C)n(CC6CC6)c5c4)nc(N4CCOCC4)n3)cc2)[nH]1 [{6-[1-(cyclopropylmethyl)-2-methylbenzimidazol-6-yl]-2-morpholin-4-ylpyrimidin-4-yl}[4-(5-methyl(4H-1,2,4-triazol-3-yl))phenyl]amine]",< 500,–
COCCn1ncc2ccc(-c3cc(Nc4ccc(C(=O)OC)cc4)nc(N4CCOCC4)n3)cc21 [methyl 4-({6-[1-(2-methoxyethyl)(1H-indazol-6-yl)]-2-morpholin-4-ylpyrimidin-4-yl}amino)benzoate],500 to 1000,–
CNC(=O)c1ccc(Nc2cc(-c3ccc4c(c3)ncn4C3CC3)nc(N3CCOCC3)n2)cc1 [(4-{[6-(1-cyclopropylbenzimidazol-5-yl)-2-morpholin-4-ylpyrimidin-4-yl]amino}phenyl)-N-methylcarboxamide],500 to 1000,–
Cn1cc2cc(Nc3cc(-c4ccc5cnn(C)c5c4)nc(N4CCOCC4)n3)ccc2n1 [[6-(1-methyl(1H-indazol-6-yl))-2-morpholin-4-ylpyrimidin-4-yl](2-methyl(2H-indazol-5-yl))amine],1000 to 5000,–
{6-[1-methyl-3-(2-morpholin-4-ylethyl)(1H-indazol-6-yl)]-2-morpholin-4-ylpyrimidin-4-yl}[4-(3-methylpyrazolyl)phenyl]amine,–,< 500
Clc1ccc(Nc2cc(-c3ccc4ncn(C5COC5)c4c3)nc(N3CCOCC3)n2)cc1 [(4-chlorophenyl)[2-morpholin-4-yl-6-(1-oxetan-3-ylbenzimidazol-6-yl)pyrimidin-4-yl]amine],< 500,–
Cn1ncc2ccc(-c3cc(Nc4ccc(-c5ccc[nH]5)cc4)nc(N4CCOCC4)n3)cc21 [[6-(1-methyl(1H-indazol-6-yl))-2-morpholin-4-ylpyrimidin-4-yl](4-pyrrol-2-ylphenyl)amine],1000 to 5000,–
Cn1nc(CCCN2CCOCC2)c2ccc(-c3cc(Nc4ccc(Cl)cc4)nc(N4CCOCC4)n3)cc21 [(4-chlorophenyl){6-[1-methyl-3-(3-morpholin-4-ylpropyl)(1H-indazol-6-yl)]-2-morpholin-4-ylpyrimidin-4-yl}amine],1000 to 5000,–
Cc1nc2ccc(-c3cc(Nc4ccc(Cl)cc4)nc(N4CCOCC4)n3)cc2n1C1CCC1 [(4-chlorophenyl)[6-(1-cyclobutyl-2-methylbenzimidazol-6-yl)-2-morpholin-4-ylpyrimidin-4-yl]amine],1000 to 5000,–
CNC(=O)c1ccc(Nc2cc(-c3ccc4ncn(CC5CC5)c4c3)nc(N3CCOCC3)n2)cn1 [[5-({6-[1-(cyclopropylmethyl)benzimidazol-6-yl]-2-morpholin-4-ylpyrimidin-4-yl}amino)(2-pyridyl)]-N-methylcarboxamide],< 500,–

# From patent publication US20190151312A1, “HEPARAN SULFATE BIOSYNTHESIS INHIBITORS FOR THE TREATMENT OF DISEASES” (BioMarin Pharmaceutical Inc., priority 2014, published 2019)
